Source: patent US11655459B2, “Methods for reprogramming somatic cells” (Whitehead Institute for Biomedical Research, priority 2003, dated 2023)
Several values for one entry are separate records, joined by “and”; a condition that tells them apart may be missing. Equal entries are not always repeated.

Test system: fibroblasts derived from tail biopsies of mice that carry the inducible Oct4 transgene
Test: Nuclear transfer experiment: in vitro development of clones derived from Oct4-induced fibroblasts
Format: cell-based, mouse
Procedure: Nuclear transfer was performed on fibroblasts derived from tail biopsies of mice that carry the inducible Oct4 transgene. Dox induction was for 24 hours prior to nuclear transfer. Cloned embryos were then activated and cultured to the blastocyst stage to derive ES cells as described previously (Hochedlinger and Jaenisch, 2002). […] [table]

[1] = Dox induction 24 hours prior to nuclear transfer, fraction of eggs with pronucleus formation, single experiment, listed as Dox
[2] = Oct4 induced, Expt. #3 and #4 together

## C[C@H]1c2cccc(O)c2C(=O)C2=C(O)[C@]3(O)C(=O)C(C(N)=O)=C(O)[C@@H](N(C)C)[C@@H]3[C@@H](O)[C@@H]21 [doxycycline]
[1]
  Blastocysts (% PN): 27% and 21%
  ES lines (% PN): 5% and 9%
Dox induction 24 hours prior to nuclear transfer, single experiment
  Blastocysts (number): 10
Dox induction 24 hours prior to nuclear transfer, single experiment, listed as Dox
  ES lines (number): 2 and 4
[2]
  Blastocysts (% PN), average of experiments: 24%
  ES lines (% PN), average of experiments: 7%
